From ChEMBL document CHEMBL4732128, “Methylsulfanylpyridine based diheteroaryl isocombretastatin analogs as potent anti-proliferative agents” (Eur J Med Chem, 2021)
Values after ≈ are worked out from the molar mass of the structure shown. Values belong to the molecule of their own block, whether it stands above or below them. Active and inactive are the calls of the source. The rule behind the calls is not given here.

Tests used:
HT-29 [1] = assay: Induction of cell cycle arrest in human HT-29 cells assessed as accumulation of cells at G2/M phase after 24 hrs by propidium iodide staining-based flow cytometric analysis; assay type: functional
HL-60 [2] = assay: Induction of apoptosis in human HL-60 cells assessed as increase in cell accumulation at sub-G0/G1 phase at 100 nM incubated for 48 hrs by propidium iodide staining based flow cytometry; assay type: functional
HT-29 [3] = assay: Induction of cell cycle arrest in human HT-29 cells assessed as accumulation of cells at Sub-G0/G1 phase at 1 nM after 24 to 72 hrs by propidium iodide staining-based flow cytometric analysis; assay type: functional; settings: time 24-72 hrs
HL-60 [4] = assay: Induction of cell cycle arrest in human HL-60 cells assessed as accumulation of cells at G2/M phase at 100 nM after 24 hrs by propidium iodide staining-based flow cytometric analysis; assay type: functional
HT-29 [5] = assay: Induction of cell cycle arrest in human HT-29 cells assessed as accumulation of cells at G2/M phase at 100 nM after 24 hrs by propidium iodide staining-based flow cytometric analysis; assay type: functional
HeLa [6] = assay: Induction of cell cycle arrest in human HeLa cells assessed as accumulation of cells at G2/M phase at 1 nM after 24 to 72 hrs by propidium iodide staining-based flow cytometric analysis; assay type: functional; settings: time 24-72 hrs
HT-29 [7] = assay: Induction of cell cycle arrest in human HT-29 cells assessed as sum of Sub-G0/G1 and G2/M population at 10 uM after 48 hrs by propidium iodide staining based flow cytometry; assay type: functional
HL-60 [8] = assay: Induction of cell cycle arrest in human HL-60 cells assessed as accumulation of cells at G2/M phase at 100 nM after 72 hrs by propidium iodide staining-based flow cytometric analysis; assay type: functional
Tubulin (Homo sapiens) = Tubulin (Homo sapiens) (UniProt P68371+Q9H4B7+P0DPH7+P68366+Q13509+Q71U36+P04350+Q3ZCM7+P07437+P68363+Q9BQE3+Q6PEY2+Q13885+Q9BVA1+Q9BUF5); assay: Induction of microtubule disruption in human HeLa cells at 1 uM measured after 24 hrs by immunofluorescence staining based confocal microscopic analysis; assay type: cell-based
HeLa [9] = assay: Induction of cell cycle arrest in human HeLa cells assessed as accumulation of cells at G2/M phase after 24 hrs by propidium iodide staining-based flow cytometric analysis; assay type: functional
HT-29 [10] = assay: Induction of cell cycle arrest in human HT-29 cells assessed as accumulation of cells at G0/G1 phase at 1 nM after 24 to 72 hrs by propidium iodide staining-based flow cytometric analysis; assay type: functional; settings: time 24-72 hrs
HeLa [11] = assay: Induction of cell cycle arrest in human HeLa cells assessed as accumulation of cells at G2/M phase at 100 nM after 72 hrs by propidium iodide staining-based flow cytometric analysis; assay type: functional
HT-29 [12] = assay: Induction of cell cycle arrest in human HT-29 cells assessed as accumulation of cells at G2/M phase at 100 nM after 72 hrs by propidium iodide staining-based flow cytometric analysis; assay type: functional
HeLa [13] = assay: Induction of apoptosis in human HeLa cells assessed as increase in cell accumulation at sub-G0/G1 phase at 100 nM incubated for 72 hrs by propidium iodide staining based flow cytometry; assay type: functional
HT-29 [14] = assay: Induction of apoptosis in human HT-29 cells assessed as increase in cell accumulation at sub-G0/G1 phase at 100 nM incubated for 48 hrs by propidium iodide staining based flow cytometry; assay type: functional
[15] = Aqueous solubility of the compound in pH 7.0 phosphate buffer at 2 mg incubated for 72 hrs by shake flask method; assay type: physicochemical
HeLa [16] = assay: Induction of cell cycle arrest in human HeLa cells assessed as accumulation of cells at G0/G1 phase at 1 nM after 24 to 72 hrs by propidium iodide staining-based flow cytometric analysis; assay type: functional; settings: time 24-72 hrs
HL-60 [17] = assay: Induction of cell cycle arrest in human HL-60 cells assessed as accumulation of cells at G0/G1 phase at 1 nM after 24 to 72 hrs by propidium iodide staining-based flow cytometric analysis; assay type: functional; settings: time 24-72 hrs
HeLa [18] = assay: Induction of cell cycle arrest in human HeLa cells assessed as accumulation of cells at S phase at 1 nM after 24 to 72 hrs by propidium iodide staining-based flow cytometric analysis; assay type: functional; settings: time 24-72 hrs
HT-29 [19] = assay: Induction of cell cycle arrest in human HT-29 cells assessed as sum of Sub-G0/G1 and G2/M population at 1 uM after 48 hrs by propidium iodide staining based flow cytometry; assay type: functional
HT-29 [20] = assay: Antiproliferative activity against human HT-29 cells assessed as inhibition of cell growth after 72 hrs by XTT assay; assay type: functional, cell-based; settings: HT-29, 72 h
HeLa [21] = assay: Antiproliferative activity against human HeLa cells assessed as inhibition of cell growth after 72 hrs by XTT assay; assay type: functional, cell-based
HL-60 [22] = assay: Induction of cell cycle arrest in human HL-60 cells assessed as accumulation of cells at Sub-G0/G1 phase at 1 nM after 24 to 72 hrs by propidium iodide staining-based flow cytometric analysis; assay type: functional; settings: time 24-72 hrs
HT-29 [23] = assay: Induction of cell cycle arrest in human HT-29 cells assessed as accumulation of cells at G2/M phase at 100 nM after 48 hrs by propidium iodide staining-based flow cytometric analysis; assay type: functional
HEK293 [24] = assay: Induction of mitotic arrest in human HEK293 cells; assay type: cell-based
HL-60 [25] = assay: Induction of apoptosis in human HL-60 cells assessed as increase in cell accumulation at sub-G0/G1 phase at 100 nM incubated for 72 hrs by propidium iodide staining based flow cytometry; assay type: functional
HL-60 [26] = assay: Induction of cell cycle arrest in human HL-60 cells assessed as accumulation of cells at S phase at 1 nM after 24 to 72 hrs by propidium iodide staining-based flow cytometric analysis; assay type: functional; settings: time 24-72 hrs
HT-29 [27] = assay: Induction of cell cycle arrest in human HT-29 cells assessed as sum of Sub-G0/G1 and G2/M population at 1 uM after 72 hrs by propidium iodide staining based flow cytometry; assay type: functional
HL-60 [28] = assay: Induction of cell cycle arrest in human HL-60 cells assessed as accumulation of cells at G2/M phase at 100 nM after 48 hrs by propidium iodide staining-based flow cytometric analysis; assay type: functional
HL-60 [29] = assay: Induction of cell cycle arrest in human HL-60 cells assessed as accumulation of cells at G2/M phase at 1 nM after 24 to 72 hrs by propidium iodide staining-based flow cytometric analysis; assay type: functional; settings: time 24-72 hrs
HeLa [30] = assay: Induction of cell cycle arrest in human HeLa cells assessed as accumulation of cells at G2/M phase at 100 nM after 48 hrs by propidium iodide staining-based flow cytometric analysis; assay type: functional
HeLa [31] = assay: Induction of mitotic arrest in human HeLa cells assessed as increase in MPM-2 expression at 1 uM incubated for 24 to 48 hrs by Western blot analysis; assay type: functional, cell-based; settings: time 24-48 hrs
HT-29 [32] = assay: Induction of cell cycle arrest in human HT-29 cells assessed as accumulation of cells at G2/M phase at 1 nM after 24 to 72 hrs by propidium iodide staining-based flow cytometric analysis; assay type: functional; settings: time 24-72 hrs
HeLa [33] = assay: Induction of apoptosis in human HeLa cells assessed as increase in cleaved PARP level at 1 uM after 24 to 48 hrs by Western blot analysis; assay type: functional, cell-based; settings: time 24-48 hrs
HeLa [34] = assay: Induction of cell cycle arrest in human HeLa cells assessed as accumulation of cells at Sub-G0/G1 phase at 1 nM after 24 to 72 hrs by propidium iodide staining-based flow cytometric analysis; assay type: functional; settings: time 24-72 hrs
HL-60 [35] = assay: Antiproliferative activity against human HL-60 cells assessed as inhibition of cell growth after 72 hrs by XTT assay; assay type: functional, cell-based; settings: HL-60, 72 h
HT-29 [36] = assay: Induction of cell cycle arrest in human HT-29 cells assessed as accumulation of cells at S phase at 1 nM after 24 to 72 hrs by propidium iodide staining-based flow cytometric analysis; assay type: functional; settings: time 24-72 hrs
HEK293 [37] = assay: Induction of apoptosis in human HEK293 cells; assay type: cell-based
[38] = Inhibition of bovine brain tubulin polymerization incubated for 30 mins by turbidimetric assay; assay type: tissue-based, Bos taurus
HeLa [39] = assay: Induction of apoptosis in human HeLa cells assessed as accumulation of cells at sub-G0/G1 phase after 24 hrs by propidium iodide staining-based flow cytometric analysis; assay type: functional, cell-based
HeLa [40] = assay: Induction of apoptosis in human HeLa cells assessed as increase in cell accumulation at sub-G0/G1 phase at 100 nM incubated for 48 hrs by propidium iodide staining based flow cytometry; assay type: functional
HT-29 [41] = assay: Induction of cell cycle arrest in human HT-29 cells assessed as sum of Sub-G0/G1 and G2/M population at 10 uM after 72 hrs by propidium iodide staining based flow cytometry; assay type: functional
HeLa [42] = assay: Induction of cell cycle arrest in human HeLa cells assessed as accumulation of cells at G2/M phase at 100 nM after 24 hrs by propidium iodide staining-based flow cytometric analysis; assay type: functional
HT-29 [43] = assay: Induction of apoptosis in human HT-29 cells assessed as increase in cell accumulation at sub-G0/G1 phase at 100 nM incubated for 72 hrs by propidium iodide staining based flow cytometry; assay type: functional
HeLa [44] = assay: Induction of apoptosis in human HeLa cells assessed as increase in cell accumulation at sub-G0/G1 phase at 100 nM incubated for 24 hrs by propidium iodide staining based flow cytometry; assay type: functional

Activity (Tubulin (Homo sapiens)): Active | solubility thermodynamic at 72 h [15]: 5.1 µg/mL (≈ 14.3 µM) | IC50 (HT-29 [20]): 195 nM | IC50 (HeLa [21]): 57 nM | IC50 (HL-60 [35]): 93 nM | IC50 [38]: 200 nM
SMILES: CSc1cc(C(=NO)c2ccc3c(c2)c(C#N)cn3C)cc(Cl)n1
Activity (HT-29 [1]): Active | Activity (HL-60 [2]): 22.7% | Activity (HT-29 [3]): inactive | Activity (HL-60 [4]): 77.4% | Activity (HT-29 [5]): 84.4% | Activity (HeLa [6]): inactive | Activity (HT-29 [7]): 92.1% | Activity (HL-60 [8]): 23.3% | Activity (HeLa [9]): Active | Activity (HT-29 [10]): inactive | Activity (HeLa [11]): 4.6% | Activity (HT-29 [12]): 4.7% | Activity (HeLa [13]): 83.3% | Activity (HT-29 [14]): 28.1% | Activity (HeLa [16]): inactive | Activity (HL-60 [17]): inactive | Activity (HeLa [18]): inactive | Activity (HT-29 [19]): 91.1% | Activity (HL-60 [22]): inactive | Activity (HT-29 [23]): 54.9% | Activity (HEK293 [24]): Toxic | Activity (HL-60 [25]): 33.1% | Activity (HL-60 [26]): inactive | Activity (HT-29 [27]): 39.1% | Activity (HL-60 [28]): 39.7% | Activity (HL-60 [29]): inactive | Activity (HeLa [30]): 46.9% | Activity (HeLa [31]): Active | Activity (HT-29 [32]): inactive | Activity (HeLa [33]): Active | Activity (HeLa [34]): inactive | Activity (HT-29 [36]): inactive | Activity (HEK293 [37]): Non-Toxic | Activity (HeLa [39]): Active | Activity (HeLa [40]): 35.9% | Activity (HT-29 [41]): 40.7% | Activity (HeLa [42]): 73.2% | Activity (HT-29 [43]): 64.7% | Activity (HeLa [44]): 15.7%

Activity (Tubulin (Homo sapiens)): Active | solubility thermodynamic at 72 h [15]: 6.3 µg/mL (≈ 18.4 µM) | IC50 (HT-29 [20]): 876 nM | IC50 (HeLa [21]): 72 nM | IC50 (HL-60 [35]): 38 nM | IC50 [38]: 1600 nM
SMILES: C=C(c1cc(Cl)nc(SC)c1)c1ccc2c(c1)c(C=O)cn2C
Activity (HT-29 [1]): inactive | Activity (HL-60 [2]): 20.9% | Activity (HT-29 [3]): inactive | Activity (HL-60 [4]): 80.1% | Activity (HeLa [6]): inactive | Activity (HL-60 [8]): 22% | Activity (HeLa [9]): Active | Activity (HT-29 [10]): inactive | Activity (HeLa [11]): 7.9% | Activity (HT-29 [12]): 15.1% | Activity (HeLa [13]): 59.1% | Activity (HeLa [16]): inactive | Activity (HL-60 [17]): inactive | Activity (HeLa [18]): inactive | Activity (HL-60 [22]): inactive | Activity (HT-29 [23]): 11.8% | Activity (HEK293 [24]): Toxic | Activity (HL-60 [25]): 32.6% | Activity (HL-60 [26]): inactive | Activity (HL-60 [28]): 40.5% | Activity (HL-60 [29]): inactive | Activity (HeLa [30]): 30.4% | Activity (HeLa [31]): Active | Activity (HT-29 [32]): inactive | Activity (HeLa [33]): Active | Activity (HeLa [34]): inactive | Activity (HT-29 [36]): inactive | Activity (HEK293 [37]): Non-Toxic | Activity (HeLa [39]): Active | Activity (HeLa [40]): 47.6% | Activity (HeLa [42]): 56.9% | Activity (HeLa [44]): 25.2%
